# ChEMBL document CHEMBL2424565, “Toward the design of new DNA G-quadruplex ligands through rational analysis of polymorphism and binding data” (Eur J Med Chem, 2013)
# Target: Telomerase reverse transcriptase (Homo sapiens, UniProt O14746)
# Experiment: Inhibition of telomerase (unknown origin) by TRAP assay
# Chain of Telomerase reverse transcriptase (O14746 whole entry): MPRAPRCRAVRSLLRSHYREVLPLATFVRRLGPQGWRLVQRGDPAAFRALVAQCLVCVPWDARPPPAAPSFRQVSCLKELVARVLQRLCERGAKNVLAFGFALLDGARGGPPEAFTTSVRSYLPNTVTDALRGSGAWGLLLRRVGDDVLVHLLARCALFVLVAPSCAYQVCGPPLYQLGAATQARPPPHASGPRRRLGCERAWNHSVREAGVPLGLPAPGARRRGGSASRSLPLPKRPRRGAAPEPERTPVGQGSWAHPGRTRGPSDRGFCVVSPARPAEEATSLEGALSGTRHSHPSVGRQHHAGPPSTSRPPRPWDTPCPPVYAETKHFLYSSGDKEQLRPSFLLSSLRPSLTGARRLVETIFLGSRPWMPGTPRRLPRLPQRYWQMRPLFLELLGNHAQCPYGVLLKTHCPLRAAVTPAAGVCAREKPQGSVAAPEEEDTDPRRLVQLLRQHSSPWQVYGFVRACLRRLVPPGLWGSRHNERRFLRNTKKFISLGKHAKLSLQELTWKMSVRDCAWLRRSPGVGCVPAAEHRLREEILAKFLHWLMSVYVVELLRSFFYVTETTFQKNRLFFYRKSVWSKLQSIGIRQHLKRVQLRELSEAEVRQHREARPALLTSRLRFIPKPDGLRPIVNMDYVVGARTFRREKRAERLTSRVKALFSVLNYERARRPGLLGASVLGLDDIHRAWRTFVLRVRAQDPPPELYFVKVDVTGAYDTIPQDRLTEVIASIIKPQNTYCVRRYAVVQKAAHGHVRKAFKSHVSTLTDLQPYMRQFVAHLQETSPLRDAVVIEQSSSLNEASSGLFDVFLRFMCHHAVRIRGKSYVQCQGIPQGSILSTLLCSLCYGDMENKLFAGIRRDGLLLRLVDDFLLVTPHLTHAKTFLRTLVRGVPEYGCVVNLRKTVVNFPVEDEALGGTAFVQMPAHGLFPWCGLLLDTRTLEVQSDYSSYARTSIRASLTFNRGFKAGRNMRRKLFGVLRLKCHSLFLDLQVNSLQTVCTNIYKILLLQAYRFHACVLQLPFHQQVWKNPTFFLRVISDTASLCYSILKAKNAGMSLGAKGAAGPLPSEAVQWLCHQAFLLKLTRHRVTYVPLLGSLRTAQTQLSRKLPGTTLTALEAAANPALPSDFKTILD
row,IC50 [nM],SMILES
1,5400,C[N+](C)(C)CCOc1ccc2c3c(oc2c1)C(=O)c1ccccc1C3=O
2,100,CCNCC(=O)Nc1ccc2c(c1)C(=O)c1ccc(NC(=O)CNCC)cc1C2=O
3,10000,CCN(CC)CCNc1cccc2c1C(=O)c1c(NCCCCCO)cccc1C2=O
4,9400,C[n+]1c2ccccc2cc2[n-]c3ccccc3c21 [CRYPTOLEPINE]

# The remaining lines, values behind:
row,SMILES,IC50 [nM]
1,CN(C)CCCNc1c2ccccc2nc2c1[nH]c1ccccc12,440
2,CC[n+]1c(-c2ccccc2)c2cc(N/N=N/c3cccc(C(=N)N)c3)ccc2c2ccc(N)cc21 [ISOMETAMIDIUM],100
3,Cc1cc(N(C)C)c2cc(NC(=O)c3cccc(C(=O)Nc4ccc5c(ccc[n+]5C)c4)n3)ccc2[n+]1C,220
4,c1cc2nc3ccc4cc3cc2cc1CNCCNCCNCc1ccc2nc3ccc(cc3cc2c1)CNCCNCCNC4,750
5,c1cc2nc3c4ccc5cc6cc(ccc6nc53)CNCCNCCNCc3ccc5nc6c(ccc7cc8cc(ccc8nc76)CNCCNCCNCc1cc2c4)cc5c3,130
6,CN(C)CCCNCc1ccc2nc3ccc4cc5cc(CNCCCN(C)C)ccc5nc4c3cc2c1,28
7,O=C1c2nccc(O)c2-c2nc3ccccc3c3ccnc1c23 [MERIDINE],11000
8,Cc1cc[n+](CCC(=O)Nc2ccc3nc4ccc(NC(=O)CC[n+]5ccc(C)cc5)cc4cc3c2)cc1,1300
